The text below walks through data of the Kinase Knowledgebase extract (Sharma et al. 2016).

By pIC50 is commonly meant the IC50 on a negative log10 scale, so that one unit is a factor of ten. Read a low pIC50 as a large IC50.

pIC50: −log10 of the molar value.

For test [1], the target named is PIK3CA, P42336 [Wild Type]. Description: Inhibition of PIK3CA (Wild Type) Kinase Activity.
The target of another test is PIK3CA (UniProt P42336). The experiment in a line: Inhibition of PIK3CA Kinase Activity.
PIK3CA, sequence (P42336 whole entry, looked up): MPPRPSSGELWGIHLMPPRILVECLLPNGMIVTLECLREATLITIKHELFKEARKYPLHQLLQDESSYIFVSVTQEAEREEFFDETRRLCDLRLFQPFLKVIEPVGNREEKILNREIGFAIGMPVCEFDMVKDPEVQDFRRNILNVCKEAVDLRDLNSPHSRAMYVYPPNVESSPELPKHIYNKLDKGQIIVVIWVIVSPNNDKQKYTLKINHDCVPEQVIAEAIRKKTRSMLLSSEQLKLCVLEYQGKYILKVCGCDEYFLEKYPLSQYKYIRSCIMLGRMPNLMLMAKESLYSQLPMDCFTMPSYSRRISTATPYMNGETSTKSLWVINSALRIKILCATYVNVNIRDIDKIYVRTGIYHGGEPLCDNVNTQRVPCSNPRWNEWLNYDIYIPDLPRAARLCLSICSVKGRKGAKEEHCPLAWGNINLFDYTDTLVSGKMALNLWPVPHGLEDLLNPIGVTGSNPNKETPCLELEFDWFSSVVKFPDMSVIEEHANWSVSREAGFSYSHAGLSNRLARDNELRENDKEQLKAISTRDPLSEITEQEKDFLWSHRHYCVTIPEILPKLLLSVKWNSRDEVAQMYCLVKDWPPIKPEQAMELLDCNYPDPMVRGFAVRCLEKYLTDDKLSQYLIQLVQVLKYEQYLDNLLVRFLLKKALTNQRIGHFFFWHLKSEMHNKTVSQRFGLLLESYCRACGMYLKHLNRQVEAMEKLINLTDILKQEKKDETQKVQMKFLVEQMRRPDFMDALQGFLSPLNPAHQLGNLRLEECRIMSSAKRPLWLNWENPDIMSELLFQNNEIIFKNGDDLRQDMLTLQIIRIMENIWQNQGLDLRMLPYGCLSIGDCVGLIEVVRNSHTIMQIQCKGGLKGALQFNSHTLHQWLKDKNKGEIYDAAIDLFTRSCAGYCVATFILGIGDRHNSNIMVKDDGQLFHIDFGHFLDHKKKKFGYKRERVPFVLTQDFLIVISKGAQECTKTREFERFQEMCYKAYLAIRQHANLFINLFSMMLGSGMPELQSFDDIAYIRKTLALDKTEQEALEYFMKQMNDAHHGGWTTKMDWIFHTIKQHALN

PIK3CA, P42336 [Wild Type], sequence (P42336 whole entry, looked up): as above

Regarding `O=c1cc(N2CCOCC2)oc2ccccc12`, the pIC50 was 5.59 in test [1] and 4.82 against PIK3CA.
On to `CCCCc1c(N2CCOCC2)oc2ccccc2c1=O`, for which the pIC50 in test [1] was 4.60; on PIK3CA, 4.32.
With `CC(C)c1c(N2CCOCC2)oc2ccccc2c1=O`, the negative-log IC50 (pIC50) in test [1] is 4.29; against PIK3CA, < 3.70.
On the same counts, the results for `CCc1c(N2CCOCC2)oc2ccccc2c1=O` are 4.55 and 5.36.
The matching figures for `O=c1c(Cc2ccccc2)c(N2CCOCC2)oc2ccccc12`: < 3.70 and < 3.70.
On the same counts, the results for `CCCc1c(N2CCOCC2)oc2ccccc2c1=O` are 4.51 and 4.17.
Turning to `Cc1c(N2CCOCC2)oc2ccccc2c1=O`, the pIC50 in test [1] was 4.48; against PIK3CA it was 4.40.
For `O=c1c(-c2ccccc2)c(N2CCOCC2)oc2ccccc12`, the pIC50 (in test [1]; on PIK3CA) was < 3.70 in each case.
